Test results reported in US20260216151A1, “GPR65 MODULATORS” (Pathios Therapeutics Limited, priority 2023, published 2026).

The compounds below were run against T1, human recombinant GPR65 (Homo sapiens, UniProt Q8IYL9) (assay: Human GPR65 cAMP HTRF antagonist assay). Settings: 1321N1-hrGPR65 cells, assay pH 7.2, cAMP HTRF; read-out: hGPR65 IC50.
T1 construct: host or cells: 1321N1 human astrocytoma cells (1321N1-hrGPR65)
Type: cell-based
Method: Human GPR65 Cyclic Adenosine Monophosphate (cAMP) Homogeneous Time Resolved Fluorescence (HTRF) Antagonist Assay Procedure
IC50 data was obtained by the following procedure:
1321N1 human astrocytoma cells stably expressing human recombinant GPR65 (1321N1-hrGPR65 cells, EuroscreenFast) were cultured according to the vendor's instructions.
Compounds were tested for their ability to antagonise GPR65, through measuring the concentration of cytoplasmic cAMP following treatment of the cells at a pH of 7.2 to activate GPR65 signalling and addition of the compound to be tested. The extent to which the expected rise in cAMP concentration upon GPR65 activation was suppressed by the added compound is indicative of its potency. The assay was carried out according to EuroscreenFast assay Methodology as follows.
On the day of the assay, test compounds were added to 384-well, low volume, white microtiter plates by acoustic dispensing. KRH buffer (5 mM KCl, 1.25 mM MgSO4, 124 mM NaCl, 25 mM HEPES, 13.3 mM Glucose, 1.25 mM KH2PO4 and 1.45 mM CaCl2) was adjusted to pH 6.5, pH 7.6 and pH 8.4 by adding NaOH. 1321N1-hGPR65 cells were rapidly thawed and diluted in KRH, pH 7.6 prior to centrifugation at 300×g for 5 min and resuspension in assay buffer (KRH, pH 7.6, supplemented with 1 mM 3-isobutyl-1-methylxanthine (IBMX) and 200 μM ethylenediaminetetraacetic acid (EDTA)). Cells were added to assay plates at a density of 2,000 cells per well in a volume of 5 μl. Assay plates were briefly centrifuged at 100×g and then incubated at room temperature for 30 min. Cells were stimulated by the addition of 5 μL KRH, pH 6.5, to achieve an assay pH of 7.2, while control wells received 5 μl KRH, pH 8.4 to achieve an assay pH of 7.9. Assay plates were briefly centrifuged at 100×g and then incubated at room temperature for 30 min.
Accumulation of cAMP was detected by cAMP HTRF kit (Cisbio). d2-labeled cAMP and cryptate-labeled anti-cAMP antibody in Lysis and Detection Buffer (Cisbio) were added to assay plates, and the plates were incubated at room temperature for 1 h. HTRF measurements were performed using a Pherastar FSX instrument. Acceptor and donor emission signals were measured at 665 nm and 620 nm, respectively, and HTRF ratios were calculated as signal665 nm/signal620 nm×10^4. Data were normalised to high and low control values and fitted with 4-parameter logistic regression to determine hGPR65 IC50 values for the test compounds, which are shown in Table 1.

T1 sequence (Q8IYL9 whole entry): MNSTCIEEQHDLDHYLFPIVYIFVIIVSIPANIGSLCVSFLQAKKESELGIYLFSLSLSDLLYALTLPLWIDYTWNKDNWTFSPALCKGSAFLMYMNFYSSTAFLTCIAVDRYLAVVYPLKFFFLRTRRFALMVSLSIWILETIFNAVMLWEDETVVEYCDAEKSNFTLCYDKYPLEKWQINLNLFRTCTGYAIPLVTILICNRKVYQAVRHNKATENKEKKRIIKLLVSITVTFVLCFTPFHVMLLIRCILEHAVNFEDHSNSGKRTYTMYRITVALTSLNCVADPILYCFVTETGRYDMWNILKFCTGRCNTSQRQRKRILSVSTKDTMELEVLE

| SMILES | IC50 [nM] |
| --- | --- |
| O=C(Nc1cc(Cl)c(-c2ccc3nonc3c2)cc1F)N1CCc2cc(=O)[nH]nc2C1 [Compound 13, N-(4-(Benzo[c][1,2,5]oxadiazol-5-yl)-5-chloro-2-fluorophenyl)-3-oxo-2,5,6,8-tetrahydropyrido[3,4-c]pyridazine-7(3H)-carboxamide] | < 500 |
| Cc1cc(-c2ccc(OCC(F)(F)F)nc2)c(Cl)cc1NC(=O)N1CCc2cc(=O)[nH]cc2C1 [Compound 15, N-(5-Chloro-2-methyl-4-(6-(2,2,2-trifluoroethoxy)pyridin-3-yl)phenyl)-6-oxo-3,4,6,7-tetrahydro-2,7-naphthyridine-2(1H)-carboxamide] | 500 to 5000 |
| COc1cc(-c2ccc(OCC(F)(F)F)nc2)c(Cl)cc1NC(=O)N1CCc2cc(=O)[nH]cc2C1 [Compound 14, N-(5-chloro-2-methoxy-4-(6-(2,2,2-trifluoroethoxy)pyridin-3-yl)phenyl)-6-oxo-3,4,6,7-tetrahydro-2,7-naphthyridine-2(1H)-carboxamide] | 500 to 5000 |
| CC(C)COc1ccc(-c2cc(F)c(NC(=O)N3CCc4cc(=O)[nH]cc4C3)cc2Cl)cn1 [Compound 9, N-(5-Chloro-2-fluoro-4-(6-isobutoxypyridin-3-yl)phenyl)-6-oxo-3,4,6,7-tetrahydro-2,7-naphthyridine-2(1H)-carboxamide] | < 500 |
| O=C(Nc1cc(Cl)c(-c2cc(F)c3nonc3c2)cc1F)N1CCc2cc(=O)[nH]cc2C1 [Compound 7, N-(5-Chloro-2-fluoro-4-(7-fluorobenzo[c][1,2,5]oxadiazol-5-yl)phenyl)-6-oxo-3,4,6,7-tetrahydro-2,7-naphthyridine-2(1H)-carboxamide] | < 500 |
| O=C(Nc1cc(Cl)c(-c2cc3nonc3cc2F)cc1F)N1CCc2cc(=O)[nH]cc2C1 [Compound 8, N-(5-Chloro-2-fluoro-4-(6-fluorobenzo[c][1,2,5]oxadiazol-5-yl)phenyl)-6-oxo-3,4,6,7-tetrahydro-2,7-naphthyridine-2(1H)-carboxamide] | < 500 |
| O=C(Nc1cc(Cl)c(-c2ccnc(OCC(F)(F)F)c2)cc1F)N1CCc2cc(=O)[nH]cc2C1 [Compound 11, N-(5-Chloro-2-fluoro-4-(2-(2,2,2-trifluoroethoxy)pyridin-4-yl)phenyl)-6-oxo-3,4,6,7-tetrahydro-2,7-naphthyridine-2(1H)-carboxamide] | < 500 |
| O=C(Nc1cc(Cl)c(-c2cnc3nonc3c2)cc1F)N1CCc2c(ccnc2F)C1 [Compound 5, N-(4-([1,2,5]Oxadiazolo[3,4-b]pyridin-6-yl)-5-chloro-2-fluorophenyl)-5-fluoro-3,4-dihydro-2,6-naphthyridine-2(1H)-carboxamide] | < 500 |
| O=C(Nc1cc(Cl)c(-c2cnc3nonc3c2)cc1F)N1CCc2cc(=O)[nH]cc2C1 [Compound 4, N-(4-([1,2,5]Oxadiazolo[3,4-b]pyridin-6-yl)-5-chloro-2-fluorophenyl)-6-oxo-3,4,6,7-tetrahydro-2,7-naphthyridine-2(1H)-carboxamide] | 500 to 5000 |
| COc1ccc(-c2cc(F)c(NC(=O)N3CCc4cc(=O)[nH]cc4C3)cc2Cl)cn1 [Compound 2, N-(5-Chloro-2-fluoro-4-(6-methoxypyridin-3-yl)phenyl)-6-oxo-3,4,6,7-tetrahydro-2,7-naphthyridine-2(1H)-carboxamide] | < 500 |
| O=C(Nc1cc(Cl)c(-c2ccc(F)nc2)cc1F)N1CCc2cc(=O)[nH]cc2C1 [Compound 3, N-(5-chloro-2-fluoro-4-(6-fluoropyridin-3-yl)phenyl)-6-oxo-3,4,6,7-tetrahydro-2,7-naphthyridine-2(1H)-carboxamide] | 500 to 5000 |
| O=C(Nc1cc(Cl)c(-c2ccc(F)nc2)cc1OCc1ccccc1)N1CCc2cc(=O)[nH]cc2C1 [Compound 16, N-(2-(Benzyloxy)-5-chloro-4-(6-fluoropyridin-3-yl)phenyl)-6-oxo-3,4,6,7-tetrahydro-2,7-naphthyridine-2(1H)-carboxamide] | > 5000 |
| O=C(Nc1cc(Cl)c(-c2ccc(OCC(F)(F)F)nc2)cc1F)N1CCc2cc(=O)[nH]nc2C1 [Compound 12, N-(5-Chloro-2-fluoro-4-(6-(2,2,2-trifluoroethoxy)pyridin-3-yl)phenyl)-3-oxo-2,5,6,8-tetrahydropyrido[3,4-c]pyridazine-7(3H)-carboxamide] | < 500 |
| O=C(Nc1cc(Cl)c(-c2ccc3nonc3c2)cc1F)N1CCc2cc(=O)[nH]cc2C1 [Compound 1, N-(4-(Benzo[c][1,2,5]oxadiazol-5-yl)-5-chloro-2-fluorophenyl)-6-oxo-3,4,6,7-tetrahydro-2,7-naphthyridine-2(1H)-carboxamide] | < 500 |
| O=C(Nc1cc(Cl)c(-c2ccc(OCC(F)(F)F)nc2)cc1F)N1CCc2cc(=O)[nH]cc2C1 [Compound 6, N-(5-Chloro-2-fluoro-4-(6-(2,2,2-trifluoroethoxy)pyridin-3-yl)phenyl)-6-oxo-3,4,6,7-tetrahydro-2,7-naphthyridine-2(1H)-carboxamide] | < 500 |
| O=C(Nc1cc(Cl)c(-c2cnc(OCC(F)(F)F)c(F)c2)cc1F)N1CCc2cc(=O)[nH]cc2C1 [Compound 10, N-(5-Chloro-2-fluoro-4-(5-fluoro-6-(2,2,2-trifluoroethoxy)pyridin-3-yl)phenyl)-6-oxo-3,4,6,7-tetrahydro-2,7-naphthyridine-2(1H)-carboxamide] | < 500 |
